Reference: patent US9382230B2, “Methods and compositions for modulating Ire1, SRC and ABL activity” (The Regents of the University of California, priority 2008, dated 2016)
pIC50: −log10 of the molar value.

Assays:
[1] = molecular target: WT Src (Homo sapiens, UniProt P12931); assay: c-Src kinase cross-reactivity assay; type: biochemical
Procedure: (§1) Assays for cross-reactivity with Src and Abl were also conducted. Purified c-Src or Abl were diluted in kinase reaction buffer (10 mM HEPES (pH 7.2), 10 mM MgCl2, 0.2 mM DTT) to a concentration of approximately 10 nM and pre-incubated with 1 mg/mL BSA, 2.5% (v/v) DMSO, 133 μM peptide (sequence EAIYAAPFKKK for Abl and EIYGEFKKK for c-Src), and varying concentrations of inhibitor. Kinase reactions were initiated by the addition of […] cold ATP supplemented with 5 mCi γ^32P ATP and allowed to proceed at room temperature (RT). At 10 minutes […] of the reactions were spotted onto phosphocellulose sheets (P81, Whatman) and subsequently soaked in was buffer (1.0% (v/v) phosphoric acid). The sheets were washed five times in buffer, dried, and transferred radioactivity was measured by phosphorimaging using a Typhoon™ scanner (Molecular Dynamics). Radioactive counts were quantified using ImageQuant software, and titration data were fit to a sigmoidal dose response to derive IC50 values using the Prism® software package. Dose responses were based on a 12 point inhibitor titration, using ⅓ dilutions starting from […].

[2] = molecular target: WT Abl (Homo sapiens, UniProt P00519); assay: Abl kinase cross-reactivity assay; type: biochemical
Procedure: as §1

[3] = test system: Ire1; assay: Summary statement of Ire1 activation or inhibition (assay not specified)
[4] = molecular target: human Ire1 (Homo sapiens, UniProt O75460); assay: In vitro cleavage of 32P-stem-loop RNA by human Ire1; type: biochemical; settings: AD series of Ire1 modulators
Procedure: (§2) RNA cleavage reactions were conducted at 30° C. in buffer containing 20 mM HEPES (pH 7.5), 70 mM NaCl, 2 mM ADP (pH 7.0), 2 mM Mg(OAc)2, 5 mM DTT, 5% glycerol, less than 1 nM ^32p-labeled RNA substrate, and 3 nM-20 μM Ire1. Reaction solutions and buffers were designed using Biochem Lab Solutions 3.5. Reactions were prepared such that 1 μl of RNA was added to 9 μl of pre-warmed reaction mixture containing all components except RNA. Typically, 3-10 minute time courses were collected starting from 5 seconds for the first time point. At time intervals, 1 μl of solution was withdrawn from each reaction and mixed wish 6 μl stop solution containing 10 M urea, 0.1% SDS, 0.1 mM EDTA, 0.05% xylene cyanol, and 0.05% bromophenol blue. The samples were separated by a denaturing 10% PAGE and exposed on a phosphor storage screen. The screens were scanned on a Storm or a Typhoon instrument and quantified using ImageQuant 5.0 or GelQuant.NET 1.4 programs. The data were plotted and fit in SigmaPlot 6.0.
In vitro cleavage of ^32P-stem-loop RNA by human Ire1, with AD series of Ire1 modulators gave the following results: […]

[5] = molecular target: T1, Ire1KR32 (Saccharomyces cerevisiae, UniProt P32361); assay: RNase cleavage assay with Ire1 cytosolic constructs (Ire1KR32), co-factors and kinase inhibitors; type: biochemical; settings: for effect of EDTA (chelation of magnesium) on RNase activity of Ire1KR32 stimulated by the substance: FIG. 3F; for activation of the RNase of Ire1KR32: FIG. 3A
T1 construct: Overview of the Ire1 constructs; GST (N); made in house; host or cells: E. coli BL21 CodonPlus (RIPL)
T1 sequence (P32361 with tags, fused parts or gaps): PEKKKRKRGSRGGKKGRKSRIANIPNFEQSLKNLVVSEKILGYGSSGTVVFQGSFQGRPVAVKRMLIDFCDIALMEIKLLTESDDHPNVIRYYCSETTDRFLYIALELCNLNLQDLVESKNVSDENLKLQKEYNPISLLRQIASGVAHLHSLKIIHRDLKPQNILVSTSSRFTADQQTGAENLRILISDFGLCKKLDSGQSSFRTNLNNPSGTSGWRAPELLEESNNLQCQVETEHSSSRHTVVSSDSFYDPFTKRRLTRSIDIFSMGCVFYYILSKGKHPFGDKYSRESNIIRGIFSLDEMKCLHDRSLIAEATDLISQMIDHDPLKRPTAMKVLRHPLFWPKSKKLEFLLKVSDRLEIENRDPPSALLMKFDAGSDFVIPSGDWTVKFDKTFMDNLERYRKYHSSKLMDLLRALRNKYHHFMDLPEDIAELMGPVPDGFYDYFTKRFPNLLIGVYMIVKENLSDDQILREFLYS
Procedure: as §2
Variants of the cytosolic portion of Ire1 that contain the kinase and the RNase domains (Ire1KR) and Ire1KR extended by 24 (Ire1KR24) or 32 (Ire1KR32) amino acids towards the N-terminus (FIG. 1A, FIG. 1C, FIG. 7) were prepared. These additional amino acid extensions are part of a ˜100 amino acid-long linker domain that tethers the kinase/RNase domains to the transmembrane domain. All three constructs cleaved site-specifically 5′-32p-labeled stem-loop oligoribonucleotides 14 derived from the XBP1 mRNA (FIG. 1B, FIG. 8). […] No ADP.Mg co-factor was required for the cooperative activation of the RNase.
Ire1KR32 was co-crystallized with inhibitors that were designed to target CDK2 and EGFR kinases. Certain kinase inhibitors fully activated the RNase function of Ire1 (FIG. 3A). This is the first example of wild-type Ire1 activation by synthetic compounds.
Crystals obtained with the inhibitor APY29 allowed the structure determination of the Ire1KR32-APY29 complex at 3.9 Å resolution. A well-resolved density for the inhibitor molecule was found in the ATP binding pocket of the Ire1 kinase domain (FIG. 3B). APY29 forms an extensive hydrogen-bonding network with the protein backbone formed by E746, L747, and C748 (FIG. 3C). Hydrogen bonds are likely to also form with two side chains at the active site, N751, and D828. […] Manual fitting of sunitinib guided by know structures of kinase.inhibitor complexes (e.g., PDB IDs 2G9X and 2F4J) predicts that the compound fills the nucleobase site, but not the sugar and the phosphate sub-sites. […] AIN54 could not be readily fit to the ATP pocket due to steric clashes arising partly because of the unusual position of beta strand β1 that covers the nucleotide-binding pocket of the Ire1 kinase.
This structural difference provides an excellent tool to test the role of magnesium in the RNase activity of Ire1. Accordingly, the effect of EDTA on the RNase activity of Ire1KR32 was examined.

[6] = molecular target: T2, yIre1 (Saccharomyces cerevisiae, UniProt P32361); assay: RNA cleavage-based yIre1 activation assay; type: biochemical, yeast; set-up: unit not given here; settings: 3 μM yIre1, stem loop RNA, 15 μM effector
T2 construct: GST (N); made in house; host or cells: E. coli BL21 CodonPlus (RIPL)
T2 sequence (P32361 with tags, fused parts or gaps limits assumed): T1 sequence (P32361 with tags, fused parts or gaps)
Procedure: The RNase Cleavage Assay.
as §2
RNA cleavage can be used to assess yIre1 activation as shown by FIG. 20 and the table below (3 μM yIre1, stem loop RNA, 15 μM effector): […]

[7] = test system: XBP1-GFP reporter in Hek293-FT cells; assay: FACS on Hek293-FT cells transfected with XBP1-GFP reporter; type: cell-based; settings: treated for 24 hrs
Procedure: Exemplary compounds were assayed and the results are set froth in the table below.

[8] = test system: Xbp-1 mRNA splicing (UPR activation through Ire1) in HEK293 cells; assay: XBP-1 mRNA splicing by RT-PCR in HEK293 cells (UPR); type: cell-based, mammalian; settings: for % splicing mRNA XBP-I Average: Hek293 cells treated for 4 hrs, RT-PCR; for in vivo activation of Ire1: summary statement
Procedure: The effect of tunicamycin, SU11248, DJM2005, APY24, and APY29 on Ire1 activity was tested in mammalian cells using HEK293 cells as a model system. Cells were treated according to the methods described in Lin J H et al., Science 318:944 (2007). After treatment with the corresponding agents for the indicated time, Xbp-1 mRNA splicing was determined by RT-PCR. Unspliced (u) and spliced (s) Xbp1-mRNA products are indicated and serve as a measure of UPR activation through Ire1.
Exemplary compounds were assayed for their effect on UPR. Results are set forth in FIGS. 18-19 and in the table below.

Sequence of WT Src (P12931 whole entry): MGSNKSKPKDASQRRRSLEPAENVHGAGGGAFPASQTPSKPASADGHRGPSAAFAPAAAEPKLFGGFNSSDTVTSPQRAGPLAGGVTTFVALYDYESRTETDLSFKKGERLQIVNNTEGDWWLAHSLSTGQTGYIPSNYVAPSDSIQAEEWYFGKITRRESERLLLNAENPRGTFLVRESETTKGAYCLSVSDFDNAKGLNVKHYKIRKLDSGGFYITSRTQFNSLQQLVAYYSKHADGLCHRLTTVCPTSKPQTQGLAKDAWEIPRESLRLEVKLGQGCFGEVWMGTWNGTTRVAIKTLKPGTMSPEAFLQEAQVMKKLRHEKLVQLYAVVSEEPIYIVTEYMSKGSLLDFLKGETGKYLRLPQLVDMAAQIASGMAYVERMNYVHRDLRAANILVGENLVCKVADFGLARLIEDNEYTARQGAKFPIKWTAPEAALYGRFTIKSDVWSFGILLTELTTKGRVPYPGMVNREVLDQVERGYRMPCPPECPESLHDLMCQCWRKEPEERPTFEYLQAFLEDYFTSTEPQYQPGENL
Sequence of WT Abl (P00519 whole entry): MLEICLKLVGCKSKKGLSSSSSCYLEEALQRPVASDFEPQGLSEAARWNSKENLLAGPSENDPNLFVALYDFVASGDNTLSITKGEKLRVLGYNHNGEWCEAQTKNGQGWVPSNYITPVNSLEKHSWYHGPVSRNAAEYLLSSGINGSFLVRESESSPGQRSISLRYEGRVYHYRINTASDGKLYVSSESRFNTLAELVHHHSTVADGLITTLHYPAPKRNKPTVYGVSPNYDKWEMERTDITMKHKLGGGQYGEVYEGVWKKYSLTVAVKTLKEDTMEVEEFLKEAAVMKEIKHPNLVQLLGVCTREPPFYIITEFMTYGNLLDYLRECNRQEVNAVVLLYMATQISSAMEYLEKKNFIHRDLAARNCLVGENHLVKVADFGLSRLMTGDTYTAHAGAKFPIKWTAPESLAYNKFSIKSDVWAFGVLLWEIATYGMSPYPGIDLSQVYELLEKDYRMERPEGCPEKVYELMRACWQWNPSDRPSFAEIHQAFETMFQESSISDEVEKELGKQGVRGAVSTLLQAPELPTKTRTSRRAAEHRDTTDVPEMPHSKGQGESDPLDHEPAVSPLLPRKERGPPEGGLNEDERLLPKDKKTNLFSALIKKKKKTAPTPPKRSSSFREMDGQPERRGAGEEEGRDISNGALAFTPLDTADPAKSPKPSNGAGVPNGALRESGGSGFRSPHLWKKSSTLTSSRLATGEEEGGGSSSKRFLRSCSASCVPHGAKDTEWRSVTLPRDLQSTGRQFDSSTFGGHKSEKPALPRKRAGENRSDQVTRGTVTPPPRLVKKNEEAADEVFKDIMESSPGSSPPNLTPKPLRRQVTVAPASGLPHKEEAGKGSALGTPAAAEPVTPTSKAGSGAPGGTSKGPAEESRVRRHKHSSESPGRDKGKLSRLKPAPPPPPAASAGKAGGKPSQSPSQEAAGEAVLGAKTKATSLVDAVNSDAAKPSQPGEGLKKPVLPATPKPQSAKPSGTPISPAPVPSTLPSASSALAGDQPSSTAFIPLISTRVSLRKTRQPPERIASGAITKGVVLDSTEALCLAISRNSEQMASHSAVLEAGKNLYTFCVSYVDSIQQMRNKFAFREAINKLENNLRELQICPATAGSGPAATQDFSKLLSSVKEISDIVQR
Sequence of human Ire1 (O75460 19-977): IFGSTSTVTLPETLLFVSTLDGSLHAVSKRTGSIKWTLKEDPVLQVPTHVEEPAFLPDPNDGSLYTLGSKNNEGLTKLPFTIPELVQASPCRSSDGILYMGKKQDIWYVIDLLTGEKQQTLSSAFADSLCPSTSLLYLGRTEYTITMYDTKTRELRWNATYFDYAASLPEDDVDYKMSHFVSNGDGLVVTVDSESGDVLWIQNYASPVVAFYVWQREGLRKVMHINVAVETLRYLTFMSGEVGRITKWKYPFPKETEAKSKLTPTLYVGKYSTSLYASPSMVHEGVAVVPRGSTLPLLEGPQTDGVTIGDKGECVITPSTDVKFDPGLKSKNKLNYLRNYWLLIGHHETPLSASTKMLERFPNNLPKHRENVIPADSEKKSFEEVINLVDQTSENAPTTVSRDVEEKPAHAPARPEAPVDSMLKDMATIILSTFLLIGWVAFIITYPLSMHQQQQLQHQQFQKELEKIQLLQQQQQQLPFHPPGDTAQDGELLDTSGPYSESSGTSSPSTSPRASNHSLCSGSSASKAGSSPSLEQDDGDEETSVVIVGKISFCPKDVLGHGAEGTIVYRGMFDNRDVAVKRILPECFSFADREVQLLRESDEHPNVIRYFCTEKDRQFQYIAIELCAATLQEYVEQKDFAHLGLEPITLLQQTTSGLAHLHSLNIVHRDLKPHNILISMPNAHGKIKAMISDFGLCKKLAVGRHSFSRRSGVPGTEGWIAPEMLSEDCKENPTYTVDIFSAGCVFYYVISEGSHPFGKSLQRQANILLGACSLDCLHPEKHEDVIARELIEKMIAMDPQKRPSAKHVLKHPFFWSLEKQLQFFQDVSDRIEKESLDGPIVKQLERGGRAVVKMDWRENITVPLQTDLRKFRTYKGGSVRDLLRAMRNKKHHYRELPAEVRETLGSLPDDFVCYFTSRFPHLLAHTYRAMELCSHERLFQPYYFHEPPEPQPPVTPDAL

SMILES	pIC50 [1]	pIC50 [2]	In vitro cleavage of 32P-stem-loop RNA by human Ire1 [4]	increase of specific RNase activity by co-factor ([5]; HP21 substrate, Ire1KR, Ire1KR24, Ire1KR32 (FIG. 1D))	RNA cleavage (yIre1 activation) [6]	activation of Ire1 [3]	effect of EDTA (chelation of magnesium) on RNase activity of Ire1KR32 stimulated by the substance [5]	% fold induction to Control ([7]; Tm 0.3 ug/ml + compound 2 uM) [%]	Mean fluorescence ([7]; Tm 0.3 ug/ml + compound 2 uM)	% fold induction to Control ([7]; compound 2 uM) [%]	Mean fluorescence ([7]; compound 2 uM)	% splicing mRNA XBP-I Average ([8]; Tm 0.3 ug/ml + compound 2 μM) [%]	% splicing mRNA XBP-I Average ([8]; compound 2 μM) [%]	% splicing mRNA XBP-I Average ([8]; compound 10 μM) [%]	in vivo activation of Ire1 [8]	activation of the RNase of Ire1KR32 [5]
O=C(Nc1ccc(Nc2nccc(Nc3cc(C4CC4)n[nH]3)n2)cc1)c1cccc(C(F)(F)F)c1 [AD74, N-(4-(4-(3-cyclopropyl-1H-pyrazol-5-ylamino)pyrimidin-2-ylamino)phenyl)-3-(trifluoromethyl)benzamide]	6.45	5.67	0.0877			significant activation										
O=C(Nc1ccc(Nc2nccc(Nc3cc(C4CC4)n[nH]3)n2)cc1)Nc1cccc(C(F)(F)F)c1 [AD75, 1-(4-(4-(3-cyclopropyl-1H-pyrazol-5-ylamino)pyrimidin-2-ylamino)phenyl)-3-(3-(trifluoromethyl)phenyl)urea]	6.77	5.61	0.2317			significant activation										
O=C(Nc1cccc(Nc2nccc(Nc3cc(C4CC4)n[nH]3)n2)c1)c1cccc(C(F)(F)F)c1 [AD76, N-(3-(4-(3-cyclopropyl-1H-pyrazol-5-ylamino)pyrimidin-2-ylamino)phenyl)-3-(trifluoromethyl)benzamide]	6.86	5.30	0.0139			significant activation										
O=C(Nc1cccc(Nc2nccc(Nc3cc(C4CC4)n[nH]3)n2)c1)Nc1cccc(C(F)(F)F)c1 [AD77, 1-(3-(4-(3-cyclopropyl-1H-pyrazol-5-ylamino)pyrimidin-2-ylamino)phenyl)-3-(3-(trifluoromethyl)phenyl)urea]	6.35	4.43	0.0239			significant activation										
N#CCc1ccc(Nc2nccc(Nc3cc(C4CC4)[nH]n3)n2)cc1 [APY24]					0.04667	significant activation		−2	2387	6	2569	28	30	44	significant in vivo activation	Potent activators

Continued, in another order:

pIC50 [1]	pIC50 [2]	In vitro cleavage of 32P-stem-loop RNA by human Ire1 [4]	increase of specific RNase activity by co-factor ([5]; HP21 substrate, Ire1KR, Ire1KR24, Ire1KR32 (FIG. 1D))	RNA cleavage (yIre1 activation) [6]	SMILES	activation of Ire1 [3]	effect of EDTA (chelation of magnesium) on RNase activity of Ire1KR32 stimulated by the substance [5]	% fold induction to Control ([7]; Tm 0.3 ug/ml + compound 2 uM) [%]	Mean fluorescence ([7]; Tm 0.3 ug/ml + compound 2 uM)	% fold induction to Control ([7]; compound 2 uM) [%]	Mean fluorescence ([7]; compound 2 uM)	% splicing mRNA XBP-I Average ([8]; Tm 0.3 ug/ml + compound 2 μM) [%]	% splicing mRNA XBP-I Average ([8]; compound 2 μM) [%]	% splicing mRNA XBP-I Average ([8]; compound 10 μM) [%]	in vivo activation of Ire1 [8]	activation of the RNase of Ire1KR32 [5]
			two orders of magnitude		Nc1ncnc2c1ncn2[C@@H]1O[C@H](COP(=O)(O)OP(=O)(O)O)[C@@H](O)[C@H]1O [ADP, reference compound]		decreased by greater than an order of magnitude									
				0.07509	c1cc(Nc2cc(C3CC3)[nH]n2)nc(Nc2ccc3[nH]cnc3c2)n1 [APY29]	significant activation	remained unchanged	65	4016	11	2697	40	10	14		Potent activators
				0.006034	N#CCc1ccc(Nc2nccc(Nc3cc(C4CCCC4)n[nH]3)n2)cc1 [APY67]	significant activation		−6	2289	−4	2326	21	20	66		
				0.06355	Cc1cc(Nc2cc(C3CC3)n[nH]2)nc(Nc2ccc(CC#N)cc2)n1 [APY69]	significant activation		16	2805	18	2864	36	23	40	significant in vivo activation	
				0.006479	N#CCc1ccc(Nc2nccc(Nc3cc(C4CCC4)n[nH]3)n2)cc1 [APY77]	significant activation		9	2648	6	2570	37	21	37		
